Data on three compounds can be found in article PMC2637359 (Journal of cardiovascular pharmacology, 2008).

Data set [1] in a line: AEPU metabolism in rat liver S9 fraction. It counts as in vitro ADME.
Data set [2] in a line: Plasma cholesterol levels in ApoE -/- mice. It counts as in vivo, mouse. Particulars: AEPU-treated ApoE -/- mice.
Data set [3] addresses T1, purified murine sEH recombinant enzyme (Mus musculus, UniProt P34914).
T1 sequence (P34914 1-554): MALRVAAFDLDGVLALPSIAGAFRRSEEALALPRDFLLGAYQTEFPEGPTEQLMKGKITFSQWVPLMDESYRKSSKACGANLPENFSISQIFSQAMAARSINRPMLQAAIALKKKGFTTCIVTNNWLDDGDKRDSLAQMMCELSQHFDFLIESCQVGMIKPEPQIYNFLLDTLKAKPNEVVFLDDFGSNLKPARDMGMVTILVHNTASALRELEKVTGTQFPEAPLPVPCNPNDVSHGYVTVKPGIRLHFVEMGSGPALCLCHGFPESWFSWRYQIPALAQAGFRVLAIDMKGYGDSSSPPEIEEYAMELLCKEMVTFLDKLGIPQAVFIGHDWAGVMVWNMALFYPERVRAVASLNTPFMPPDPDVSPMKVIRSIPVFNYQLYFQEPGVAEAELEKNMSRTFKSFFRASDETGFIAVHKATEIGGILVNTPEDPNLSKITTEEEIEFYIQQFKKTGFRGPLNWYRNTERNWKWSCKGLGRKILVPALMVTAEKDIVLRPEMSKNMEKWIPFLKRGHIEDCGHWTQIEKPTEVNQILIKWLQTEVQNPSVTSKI
The data set is described as follows: sEH activity fluorescent assay. It counts as biochemical.

Data set [4] is described as follows: Single oral dose pharmacokinetic study in mice. It counts as in vivo, mouse. Particulars: AEPU by oral gavage 10 mg/kg, over 24 hours.
A further data set in a line: in vivo. Particulars: ApoE -/-, mouse, plasma, oral, 90 µg/ml in drinking water.

`CCOCCOCCOCCCCCNC(=O)NC12CC3CC(CC(C3)C1)C2` [AEPU, 1-adamantan-3-(5-(2-(2-ethylethoxy)ethoxy)pentyl)urea]: the “Metabolism in the absence of NADPH” value in data set [1] (rat S9 liver preparation without NADPH) was “no metabolism”. For the same compound, the “AEPU remaining in the mixture” value in data set [1] (rat liver S9 2.5 mg/mL, NADPH generating system, AEPU 10 µM, 60 min) is recorded as “less than 10%”. In addition, the Plasma cholesterol level amounted to 2.5 ± 0.9 mM in data set [2] (control 2.5±0.6 mM) and 96.2 ± 34.6 mg/dL in data set [2] (control 96.2±23.1 mg/dl).
By IC50 is commonly meant the concentration needed to halve the response being measured. With `O=C(NCCCCCOCCOCCOCCO)NC12CC3CC(CC(C3)C1)C2` [Compound 975, 1-adamantan-1-yl-3-(5-{2-[2-(2-hydroxy-ethoxy)-ethoxy]-ethoxy}-pentyl)-urea], the IC50 in data set [3] amounted to 4.7 ± 0.7 nM.
Regarding `CCOCCOCCOCCCCCNC(=O)NC12CC3CC(CC(O)(C3)C1)C2` [Compound 1010, 1-{5-[2-(2-ethoxyethoxy)-ethoxy]-pentyl}-3-(3-hydroxy-adamantan-1-yl)-urea], the “times more abundant in the plasma than AEPU” value in data set [4] is listed as “roughly 5,000 times”. The IC50 in data set [3] was 78 ± 19 nM. In addition, the “fold less potent on the enzyme than AEPU” value in data set [3] (murine sEH) came out at 28 fold. This compound had a concentration at 8 weeks in “in vivo” of 565 nM.
